Activity calls are given as the source filed them.
Assays:
HEK293 [1] = test: EBV LMP1 TES2 canonical NF-kB signalling blockers – cell-based, HEK293, luciferase, cherry-pick, dose response (AID 588343); format: functional; settings: Homo sapiens
Nonstructural protein 1 = Nonstructural protein 1 (Influenza A virus, UniProt Q194T2); format: functional, Influenza A virus (A/California/07/2009(H1N1))
[2] = biological target: Nucleotide-binding oligomerization domain-containing protein 2 (Homo sapiens, UniProt Q9HC29); test: inhibition of NOD2-driven NF-kB reporter – cell-based, luminescence, uHTS, HEK293 (AID 1566); format: functional
HEK293 [3] = test: inhibition of NOD1-driven NF-kB reporter – cell-based, luminescence, uHTS, primary screen (AID 1578); format: functional; settings: Homo sapiens
HEK293 [4] = test: NOD2 signaling inhibitors in MDP-stimulated cells, cell-based, uHTS, luminescence (AID 2001); format: functional; settings: Homo sapiens
HEK293 [5] = test: cells; format: functional, cell-based; settings: Homo sapiens
HEK293 [6] = test: cells; format: functional, cell-based; settings: Homo sapiens; remark: listed apart in the source
HEK293 [7] = test: cells; format: functional, cell-based; settings: Homo sapiens; remark: listed apart in the source
[8] = biological target: T1, Neuropeptides B/W receptor type 1 (Homo sapiens, UniProt P48145); test: human NPBW1 receptor blockade, IC50 – cell-based, fluorescence, dose response, set 6, late-stage follow-up (AID 588583); format: functional
T1 sequence (P48145 whole entry): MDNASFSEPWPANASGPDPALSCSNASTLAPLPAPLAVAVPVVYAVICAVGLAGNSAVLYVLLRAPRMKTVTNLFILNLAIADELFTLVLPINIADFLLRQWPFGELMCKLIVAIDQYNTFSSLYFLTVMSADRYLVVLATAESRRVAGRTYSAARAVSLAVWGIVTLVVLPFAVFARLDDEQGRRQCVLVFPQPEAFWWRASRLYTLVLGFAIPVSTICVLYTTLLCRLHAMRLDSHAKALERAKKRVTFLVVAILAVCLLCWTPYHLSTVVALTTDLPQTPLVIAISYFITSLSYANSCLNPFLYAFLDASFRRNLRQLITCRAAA

[9] = biological target: Melanin-concentrating hormone receptor 1 (Homo sapiens, UniProt Q99705); test: Late-stage fluorescence-based counterscreen for antagonists of the G-protein coupled receptor 7 (GPR7): cell-based dose response assay to identify antagonists of the melanin-concentrating hormone receptor 1 (MCHR1) Set 6.; format: functional
P388/ADR = test: cells; format: functional; settings: Mus musculus
SN12K1 = test: cells; format: functional; settings: Homo sapiens
P388 = test: cells; format: functional; settings: Mus musculus
Tumor necrosis factor = Tumor necrosis factor (Homo sapiens, UniProt P01375); test: analog potency on TNFa NF-kB signaling – cell-based, revised, SAR follow-up (AID 2337); format: functional
HEK293 [10] = test: cells; settings: Homo sapiens
Estrogen receptor = biological target: T2, Estrogen receptor (Homo sapiens, UniProt P03372);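 also: potency for inhibiting coactivator peptide recruitment to the receptor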
T2 sequence (P03372 whole entry): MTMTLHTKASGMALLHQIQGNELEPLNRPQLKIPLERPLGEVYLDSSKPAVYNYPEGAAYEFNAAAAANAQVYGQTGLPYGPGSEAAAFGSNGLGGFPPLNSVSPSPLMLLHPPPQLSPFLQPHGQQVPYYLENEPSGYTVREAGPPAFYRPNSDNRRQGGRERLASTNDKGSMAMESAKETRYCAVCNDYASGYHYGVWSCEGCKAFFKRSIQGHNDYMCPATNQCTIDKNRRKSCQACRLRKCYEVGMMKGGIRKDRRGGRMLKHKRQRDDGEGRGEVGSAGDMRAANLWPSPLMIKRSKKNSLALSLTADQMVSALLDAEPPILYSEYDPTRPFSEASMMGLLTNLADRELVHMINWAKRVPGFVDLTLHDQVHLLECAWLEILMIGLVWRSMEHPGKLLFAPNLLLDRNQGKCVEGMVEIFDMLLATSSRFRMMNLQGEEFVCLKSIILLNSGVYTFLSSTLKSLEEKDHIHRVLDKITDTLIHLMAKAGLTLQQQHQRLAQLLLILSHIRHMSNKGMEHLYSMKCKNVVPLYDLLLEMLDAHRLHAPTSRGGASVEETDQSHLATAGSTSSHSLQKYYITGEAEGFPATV

Cytochrome P450 3A4 = Cytochrome P450 3A4 (Homo sapiens, UniProt P08684); settings: Potency;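 also: confirmatory qHTS run detecting inhibitors and substrates of CYP3A4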
Melanocortin receptor 4 = Melanocortin receptor 4 (Homo sapiens, UniProt P32245); test: inhibitors of MC4R cAMP signaling – cell-based, TR-FRET, biased antagonists, dose response (AID 602298); format: functional;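 also: antagonist potency against agonist-stimulated cAMP production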
[11] = cAMP pathway inhibition in counterscreen cell line – TR-FRET cAMP detection, counter-screen for MC4R biased antagonist project, dose response (AID 602305); format: functional, cell-based;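 also: U2OS cells stimulated with forskolin near its EC80 as the cAMP inducer; potency is for inhibition of forskolin-stimulated cAMP signaling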

Chain of Melanin-concentrating hormone receptor 1 (Q99705 whole entry): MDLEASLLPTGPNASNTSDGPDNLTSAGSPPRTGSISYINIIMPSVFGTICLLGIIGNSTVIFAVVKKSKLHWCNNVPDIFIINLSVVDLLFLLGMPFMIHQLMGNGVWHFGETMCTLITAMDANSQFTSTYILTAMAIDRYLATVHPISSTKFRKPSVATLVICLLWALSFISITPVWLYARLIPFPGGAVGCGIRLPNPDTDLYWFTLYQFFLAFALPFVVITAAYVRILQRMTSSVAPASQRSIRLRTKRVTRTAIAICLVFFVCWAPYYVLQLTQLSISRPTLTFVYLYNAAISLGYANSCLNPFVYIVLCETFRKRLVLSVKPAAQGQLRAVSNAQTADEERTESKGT
Chain of Nucleotide-binding oligomerization domain-containing protein 2 (Q9HC29 whole entry, the tested form may be a part): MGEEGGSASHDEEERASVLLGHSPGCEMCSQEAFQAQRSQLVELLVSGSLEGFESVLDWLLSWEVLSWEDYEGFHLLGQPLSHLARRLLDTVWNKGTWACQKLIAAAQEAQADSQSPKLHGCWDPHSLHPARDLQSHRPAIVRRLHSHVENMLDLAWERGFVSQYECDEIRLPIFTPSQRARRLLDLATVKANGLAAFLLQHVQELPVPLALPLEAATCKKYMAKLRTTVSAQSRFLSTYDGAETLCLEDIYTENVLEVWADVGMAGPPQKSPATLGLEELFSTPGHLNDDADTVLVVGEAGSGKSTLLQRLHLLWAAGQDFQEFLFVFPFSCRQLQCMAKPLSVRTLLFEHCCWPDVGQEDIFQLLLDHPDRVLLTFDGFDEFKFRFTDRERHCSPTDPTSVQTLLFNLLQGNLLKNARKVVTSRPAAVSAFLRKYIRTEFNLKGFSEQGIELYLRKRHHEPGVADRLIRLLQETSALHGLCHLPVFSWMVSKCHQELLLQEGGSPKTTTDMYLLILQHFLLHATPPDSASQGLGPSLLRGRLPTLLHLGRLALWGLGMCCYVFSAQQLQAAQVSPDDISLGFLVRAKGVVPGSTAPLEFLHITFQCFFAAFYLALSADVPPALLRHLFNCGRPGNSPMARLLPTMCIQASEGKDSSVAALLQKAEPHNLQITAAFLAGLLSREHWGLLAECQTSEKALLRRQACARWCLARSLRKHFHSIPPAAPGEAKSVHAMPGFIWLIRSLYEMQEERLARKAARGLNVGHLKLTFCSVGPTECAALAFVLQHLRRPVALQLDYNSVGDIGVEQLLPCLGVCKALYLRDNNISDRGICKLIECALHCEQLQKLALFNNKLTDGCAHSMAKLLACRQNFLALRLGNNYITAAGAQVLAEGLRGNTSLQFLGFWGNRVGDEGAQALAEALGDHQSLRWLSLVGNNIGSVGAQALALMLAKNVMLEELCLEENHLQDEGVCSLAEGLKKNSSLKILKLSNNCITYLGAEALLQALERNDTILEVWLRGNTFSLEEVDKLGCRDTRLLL
Chain of Nonstructural protein 1 (Q194T2 whole entry, the tested form may be a part): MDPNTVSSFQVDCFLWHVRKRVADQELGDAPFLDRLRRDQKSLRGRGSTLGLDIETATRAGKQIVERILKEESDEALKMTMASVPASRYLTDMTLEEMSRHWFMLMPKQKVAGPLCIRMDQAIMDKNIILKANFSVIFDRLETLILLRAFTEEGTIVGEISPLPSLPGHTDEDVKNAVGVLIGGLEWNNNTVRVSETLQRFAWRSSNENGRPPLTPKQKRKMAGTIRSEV
Chain of Melanocortin receptor 4 (P32245 whole entry): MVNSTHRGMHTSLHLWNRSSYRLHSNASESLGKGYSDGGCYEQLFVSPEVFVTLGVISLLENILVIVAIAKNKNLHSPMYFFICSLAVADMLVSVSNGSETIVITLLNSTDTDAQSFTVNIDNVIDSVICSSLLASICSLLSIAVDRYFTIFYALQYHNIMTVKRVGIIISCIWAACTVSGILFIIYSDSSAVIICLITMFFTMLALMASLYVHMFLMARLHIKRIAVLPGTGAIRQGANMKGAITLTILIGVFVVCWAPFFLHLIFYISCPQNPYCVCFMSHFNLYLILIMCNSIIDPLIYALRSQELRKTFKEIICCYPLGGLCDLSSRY
Chain of Tumor necrosis factor (P01375 whole entry): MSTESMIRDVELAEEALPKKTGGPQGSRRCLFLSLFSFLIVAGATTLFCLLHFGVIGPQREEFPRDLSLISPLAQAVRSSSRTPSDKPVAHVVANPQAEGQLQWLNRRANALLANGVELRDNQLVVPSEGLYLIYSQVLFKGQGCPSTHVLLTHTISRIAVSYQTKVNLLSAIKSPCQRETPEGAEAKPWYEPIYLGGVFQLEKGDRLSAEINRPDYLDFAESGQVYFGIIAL
Chain of Cytochrome P450 3A4 (P08684 whole entry): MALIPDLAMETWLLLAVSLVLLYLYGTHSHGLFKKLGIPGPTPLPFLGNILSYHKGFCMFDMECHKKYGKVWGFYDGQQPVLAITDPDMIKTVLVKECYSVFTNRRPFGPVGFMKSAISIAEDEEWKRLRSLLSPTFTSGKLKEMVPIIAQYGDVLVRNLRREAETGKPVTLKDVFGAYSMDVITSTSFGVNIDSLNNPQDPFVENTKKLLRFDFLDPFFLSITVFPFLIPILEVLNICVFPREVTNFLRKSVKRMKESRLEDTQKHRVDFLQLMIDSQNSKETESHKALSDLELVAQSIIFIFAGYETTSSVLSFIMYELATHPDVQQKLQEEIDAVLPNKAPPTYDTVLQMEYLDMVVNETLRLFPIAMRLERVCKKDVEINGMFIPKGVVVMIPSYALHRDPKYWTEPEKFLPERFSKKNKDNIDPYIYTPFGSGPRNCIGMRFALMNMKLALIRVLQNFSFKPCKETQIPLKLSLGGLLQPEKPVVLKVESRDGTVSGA

CCc1ccc(/C=C2\SC(=S)N(CCCC(=O)NC3=NCCS3)C2=O)cc1
AC50 (HEK293 [1]): 1.85 µM (active)

Cc1cccn2c(=O)c(C=C(C#N)C#N)c(N3CCN(c4ccccc4)CC3)nc12
IC50 (Nonstructural protein 1): > 100 µM (active)

O=S(=O)(Nc1nc2ccccc2nc1Nc1ccc2c(c1)OCO2)c1ccc(F)cc1
EC50 [2]: 11.6 µM (active)
EC50 (HEK293 [3]): 2.81 µM (active)
IC50 (HEK293 [4]): 6.29 µM (active)
IC50 (HEK293 [5]): > 20 µM (inactive)
IC50 (HEK293 [6]): 8.92 µM (active)
IC50 (HEK293 [7]): > 20 µM (inactive)

CC(C)(C#N)c1c(Cl)cnn(Cc2cccc3ccccc23)c1=O
IC50 [8]: 2.5 µM (active)
IC50 [9]: 2.5 µM (active)

O=C(NC(Cc1ccc(I)cc1)C(=O)O)c1cccc(Br)c1 (configuration not stated)
GI50 (P388/ADR): 55.2 µM (inactive)
GI50 (SN12K1): > 100 µM (inactive)
GI50 (P388): 47.6 µM (inactive)

CSc1nc(NC2OCC(O)C(O)C2O)c(N)c(=O)n1C (configuration not stated)
GI50 (P388/ADR): > 100 µM (inactive)
GI50 (SN12K1): > 100 µM (inactive)
GI50 (P388): > 100 µM (inactive)

C=C1C(O)C2(O)OCC34C(CC5C(C)=CC(=O)C(O)C5(C)C23)OC(=O)C(OC(=O)C/C=C/CCCCCCCC)C14 (configuration not stated)
GI50 (P388/ADR): 0.0611 µM (active)
GI50 (SN12K1): 0.02 µM (active)
GI50 (P388): 0.02 µM (active)

N#Cc1ccc(N2CCN(S(=O)(=O)c3ccc4c(c3)CCN4C(=O)C3CC3)CC2)cc1
IC50 (Tumor necrosis factor): 13.3 µM (active)
IC50 (HEK293 [10]): > 20 µM (inactive)

COc1ccc(C(=O)CSc2nnc(C3CCCCC3)n2N)c(OC)c1
IC50 (Estrogen receptor): > 50 µM (not active)

COC(=O)N1[C@H](C)C=C[C@]1(Cc1ccccc1)C(=O)NCc1ccc(C)o1
AC50 (Cytochrome P450 3A4): 7.94 µM (inconclusive)

CC(C)(C)c1ccc2c(c1)OP1(Oc3cccc4cccnc34)(O2)Oc2ccc(C(C)(C)C)cc2O1
GI50 (P388/ADR): 1.02 µM (active)
GI50 (SN12K1): 4.24 µM (inactive)
GI50 (P388): 0.689 µM (active)

CC(C)CNC(=O)c1c(N)n(/N=C/c2ccccn2)c2nc3ccccc3nc12
IC50 (Estrogen receptor): 15.9 µM (active)

Cc1cc(OCC(=O)Nc2ccncc2)cc(C)c1Br
EC50 [2]: 8.76 µM (active)
EC50 (HEK293 [3]): 3.21 µM (active)
IC50 (HEK293 [4]): 6.86 µM (active)
IC50 (HEK293 [5]): > 20 µM (inactive)
IC50 (HEK293 [6]): 5.24 µM (active)
IC50 (HEK293 [7]): 13.3 µM (active)

Cc1ccc(-n2cccc2/C=C2\C(=N)N3N=C(C(C)C)SC3=NC2=O)cc1
IC50 (Melanocortin receptor 4): > 64.6 µM (inactive)
IC50 [11]: > 64.6 µM (inactive)

COc1ccc(Oc2c(Cl)cnn(Cc3ccccc3[N+](=O)[O-])c2=O)cc1
IC50 [8]: 1.41 µM (active)
IC50 [9]: 1.41 µM (active)

— ChEMBL document CHEMBL1201862, “PubChem BioAssay data set” (2004)
